In patent US20020026051A1, “Dithiepino [6,5-b]pyridines, and related compositions and methods” (priority 1999, published 2002) one finds IC50 data, which are given here for 32 compounds.

T1 sequence (P15381 whole entry, other chains not shown): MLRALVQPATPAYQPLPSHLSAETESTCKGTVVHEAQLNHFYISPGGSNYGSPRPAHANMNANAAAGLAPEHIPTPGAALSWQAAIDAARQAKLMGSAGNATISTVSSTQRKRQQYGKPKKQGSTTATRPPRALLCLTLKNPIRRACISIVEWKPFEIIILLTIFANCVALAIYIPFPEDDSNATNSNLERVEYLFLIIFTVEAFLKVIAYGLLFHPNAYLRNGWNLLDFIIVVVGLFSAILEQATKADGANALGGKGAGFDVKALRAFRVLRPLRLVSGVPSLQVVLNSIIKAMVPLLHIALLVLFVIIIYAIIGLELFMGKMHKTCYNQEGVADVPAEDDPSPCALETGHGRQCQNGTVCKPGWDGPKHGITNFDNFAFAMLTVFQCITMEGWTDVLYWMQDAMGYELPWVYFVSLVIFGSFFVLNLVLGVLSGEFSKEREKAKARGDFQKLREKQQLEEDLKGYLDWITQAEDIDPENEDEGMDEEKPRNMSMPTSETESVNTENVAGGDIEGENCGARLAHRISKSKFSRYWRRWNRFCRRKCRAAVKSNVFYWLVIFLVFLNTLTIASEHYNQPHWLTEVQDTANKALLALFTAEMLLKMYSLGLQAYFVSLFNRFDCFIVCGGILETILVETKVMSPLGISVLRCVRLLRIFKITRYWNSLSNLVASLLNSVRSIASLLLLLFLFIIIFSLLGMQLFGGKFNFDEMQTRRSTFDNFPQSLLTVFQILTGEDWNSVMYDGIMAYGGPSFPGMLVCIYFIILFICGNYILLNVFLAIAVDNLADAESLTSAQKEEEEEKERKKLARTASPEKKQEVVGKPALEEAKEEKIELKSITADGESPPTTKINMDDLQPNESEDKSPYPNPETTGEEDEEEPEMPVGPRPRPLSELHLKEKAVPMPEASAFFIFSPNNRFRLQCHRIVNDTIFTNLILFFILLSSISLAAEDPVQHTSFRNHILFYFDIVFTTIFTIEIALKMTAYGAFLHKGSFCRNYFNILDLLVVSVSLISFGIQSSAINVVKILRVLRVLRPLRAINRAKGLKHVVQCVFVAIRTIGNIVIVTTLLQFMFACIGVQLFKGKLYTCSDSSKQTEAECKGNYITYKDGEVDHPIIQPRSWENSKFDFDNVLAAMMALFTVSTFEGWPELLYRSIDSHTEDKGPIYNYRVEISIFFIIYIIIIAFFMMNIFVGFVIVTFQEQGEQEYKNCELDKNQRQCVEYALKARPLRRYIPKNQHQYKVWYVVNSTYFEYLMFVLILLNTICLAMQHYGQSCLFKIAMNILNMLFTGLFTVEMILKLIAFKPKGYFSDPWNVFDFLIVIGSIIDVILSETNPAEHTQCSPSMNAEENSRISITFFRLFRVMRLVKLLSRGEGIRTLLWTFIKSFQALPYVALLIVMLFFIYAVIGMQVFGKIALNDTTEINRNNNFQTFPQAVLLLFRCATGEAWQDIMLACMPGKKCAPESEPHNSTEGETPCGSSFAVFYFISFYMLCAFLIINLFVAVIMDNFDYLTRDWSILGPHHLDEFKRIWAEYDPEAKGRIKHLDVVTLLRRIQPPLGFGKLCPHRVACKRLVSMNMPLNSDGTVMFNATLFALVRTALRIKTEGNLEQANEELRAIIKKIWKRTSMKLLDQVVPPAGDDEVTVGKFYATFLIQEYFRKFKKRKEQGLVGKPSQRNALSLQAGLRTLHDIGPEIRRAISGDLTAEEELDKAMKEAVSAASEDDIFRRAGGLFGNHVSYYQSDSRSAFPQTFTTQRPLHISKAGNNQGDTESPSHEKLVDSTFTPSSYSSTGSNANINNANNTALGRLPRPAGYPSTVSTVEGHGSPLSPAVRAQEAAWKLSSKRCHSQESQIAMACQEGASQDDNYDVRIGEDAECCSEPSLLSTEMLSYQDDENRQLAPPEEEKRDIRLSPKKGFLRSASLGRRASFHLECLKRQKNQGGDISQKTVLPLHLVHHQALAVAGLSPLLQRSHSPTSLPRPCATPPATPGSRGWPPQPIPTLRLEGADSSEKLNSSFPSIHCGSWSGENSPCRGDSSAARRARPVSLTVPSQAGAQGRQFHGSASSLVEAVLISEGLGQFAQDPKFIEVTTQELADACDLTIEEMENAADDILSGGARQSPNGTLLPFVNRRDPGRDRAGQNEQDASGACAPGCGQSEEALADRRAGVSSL
T1 sequence (P13806 27-960 partner limits assumed, other chains not shown): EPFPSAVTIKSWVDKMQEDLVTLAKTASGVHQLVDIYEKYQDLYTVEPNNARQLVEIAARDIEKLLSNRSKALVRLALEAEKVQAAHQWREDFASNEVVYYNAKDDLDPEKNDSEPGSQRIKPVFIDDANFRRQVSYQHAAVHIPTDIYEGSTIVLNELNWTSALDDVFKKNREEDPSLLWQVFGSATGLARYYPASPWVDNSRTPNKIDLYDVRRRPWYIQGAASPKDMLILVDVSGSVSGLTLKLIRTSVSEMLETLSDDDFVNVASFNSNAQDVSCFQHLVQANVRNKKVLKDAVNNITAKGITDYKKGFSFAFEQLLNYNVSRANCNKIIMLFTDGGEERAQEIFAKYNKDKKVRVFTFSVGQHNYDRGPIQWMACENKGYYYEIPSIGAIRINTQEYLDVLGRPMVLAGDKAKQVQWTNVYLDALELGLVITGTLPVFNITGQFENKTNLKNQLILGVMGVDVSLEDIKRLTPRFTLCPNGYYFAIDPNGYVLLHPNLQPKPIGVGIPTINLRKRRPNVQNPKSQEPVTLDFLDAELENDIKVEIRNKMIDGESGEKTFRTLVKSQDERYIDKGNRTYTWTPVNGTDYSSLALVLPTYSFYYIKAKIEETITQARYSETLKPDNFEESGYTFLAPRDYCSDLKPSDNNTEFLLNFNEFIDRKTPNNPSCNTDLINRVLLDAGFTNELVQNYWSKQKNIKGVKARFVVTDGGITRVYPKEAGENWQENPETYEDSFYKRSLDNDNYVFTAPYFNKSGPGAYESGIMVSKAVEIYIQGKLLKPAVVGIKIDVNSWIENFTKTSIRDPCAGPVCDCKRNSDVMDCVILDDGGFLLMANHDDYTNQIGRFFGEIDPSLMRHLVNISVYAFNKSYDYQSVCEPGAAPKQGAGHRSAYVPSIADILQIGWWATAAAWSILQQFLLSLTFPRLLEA
T1 sequence (P13806 961-1106 partner limits assumed, other chains not shown): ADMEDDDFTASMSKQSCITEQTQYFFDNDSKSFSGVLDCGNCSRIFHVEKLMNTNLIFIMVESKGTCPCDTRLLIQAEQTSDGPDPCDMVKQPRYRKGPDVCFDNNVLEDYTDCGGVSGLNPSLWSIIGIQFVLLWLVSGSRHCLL

One assay concerns the target T1, calcium channel (Oryctolagus cuniculus, UniProt P15381).
T1 construct: from tissue; host or cells: rabbit heart membrane preparation
The assay is described as follows: Assay for Inhibition of Nitrendipine Binding (3H-nitrendipine, heart membranes). The settings on record: 3H-nitrendipine displacement, rabbit heart membranes; Tables 1-5. As to the method:
Female, New Zealand white rabbits (1-2 kg) are sacrificed by cervical dislocation, and the heart is immediately removed, cleaned and chopped into small pieces. The tissue is homogenized in 5× times volume of 0.05M Hepes buffer, pH 7.4. The homogenate is centrifuged at 4000 g for 10 minutes, and the supernatant is re-centrifuged at 42,000×g for 90 minutes. The resulting membrane pellet is resuspended (0.7 ml/g weight) in 0.05M Hepes, pH 7.4 and stored at […] until used. Each tube of the binding assay contains ^3H-nitrendipine (0.05-0.50 nM), buffer, membranes (0.10 ml), and test compound in a total volume of 1.0 ml. After 90 minutes at 4° C., the bound nitrendipine is separated from the unbound by filtration on Whatman GF/C filters. After rinsing, the filters are dried and counted in a liquid scintillation counter.
Non-specific binding of ^3H-nitrendipine (that amount bound in the presence of excess unlabelled nitrendipine) is subtracted from the total bound to obtain specifically bound radiolabeled nitrendipine. The amount of specifically bound nitrendipine in the presence of a test compound is compared to that amount bound in the absence of a compound. A percent displacement (or inhibition) can then be calculated.
One may read the IC50 as the concentration that inhibits the measured activity by half. Turning to `COC(=O)C1=C(C)NC2=C(C1c1cccc(C(F)(F)F)c1F)S(=O)(=O)CCS(=O)(=O)C2` (centres unmarked) [Compound 17, 5H-1,4-Dithiepino[6,5-b]pyridine-8-carboxylic acid, 9-[2-fluoro-3-(trifluoromethyl)phenyl]-2,3,6,9-tetrahydro-7-methyl-methyl ester 1,1,4,4-tetraoxide], the IC50 was 20 nM. The same measure, in the same setting: under `CC1=C(C(=O)OCCN(C)Cc2ccccc2)C(c2c(F)cccc2C(F)(F)F)C2=C(CS(=O)(=O)CCS2(=O)=O)N1` (centres unmarked) [Compound 5, 5H-1,4-Dithiepino[6,5-b]pyridine-8-carboxylic acid, 9-[2-fluoro-6-(trifluoromethyl)phenyl]-2,3,6,9-tetrahydro-7-methyl-2-[methyl(phenylmethyl)amino]ethyl ester 1,1,4,4-tetraoxide] stands 12 nM. Same read-out and setting: then `CC1=C(C(=O)OCCN(C)Cc2ccccc2)C(c2ccccc2Cl)C2=C(CS(=O)(=O)CCCS2(=O)=O)N1` (centres unmarked) [Compound 29, 2H,6H-1,5-Dithiocino[3,2-b]pyridine-9-carboxylic acid, 10-(2-chlorophenyl)-3,4,7,10-tetrahydro-8-methyl-2-[methyl(phenylmethyl)amino]ethyl ester 1,1,5,5-tetraoxide], with 57 nM; and `CC1=C(C(=O)OCCN(C)Cc2ccccc2)C(c2ccccc2Cl)C2=C(CS(=O)(=O)CS2(=O)=O)N1` (centres unmarked) [Compound 32, 4H-1,3-Dithiino[5,4-b]pyridine-7-carboxylic acid, 8-(2-chlorophenyl)-5,8-dihydro-6-methyl-2-[methyl(phenylmethyl)amino]ethyl ester 1,1,3,3-tetraoxide], with 39 nM; and `C=C1CS(=O)(=O)C2=C(CS1(=O)=O)NC(C)=C(C(=O)OC)C2c1cccc(C(F)(F)F)c1F` (centres unmarked) [Compound 20, 5H-1,4-Dithiepino[6,5-b]pyridine-8-carboxylic acid, 9-[2-fluoro-3-(trifluoromethyl)phenyl]-2,3,6,9-tetrahydro-7-methyl-3-methylene-methyl ester 1,1,4,4-tetraoxide], with 21 nM. Still for that read-out and setting: then `COC(=O)C1=C(C)NC2=C(C1c1ccccc1[N+](=O)[O-])S(=O)(=O)CCS(=O)(=O)C2` (centres unmarked) [Compound 19, 5H-1,4-Dithiepino[6,5-b]pyridine-8-carboxylic acid, 2,3,6,9-tetrahydro-7-methyl-9-(2-nitrophenyl)-methyl ester 1,1,4,4-tetraoxide], with 210 nM. Turning to `CC1=C(C(=O)OCCN(C)Cc2ccccc2)C(c2cccc(C(F)(F)F)c2F)C2=C(CS(=O)(=O)CCCS2(=O)=O)N1` (centres unmarked) [Compound 28, 2H,6H-1,5-Dithiocino[3,2-b]pyridine-9-carboxylic acid, 10-[2-fluoro-3-(trifluoromethyl)phenyl]-3,4,7,10-tetrahydro-8-methyl-2-[methyl(phenylmethyl)amino]ethyl ester 1,1,5,5-tetraoxide], the IC50 is 53 nM. As for `CC1=C(C(=O)OCCN(C)Cc2ccccc2)C(c2cccc([N+](=O)[O-])c2)C2=C(CS(=O)(=O)CCS2(=O)=O)N1` (centres unmarked) [Compound 8, 5H-1,4-Dithiepino[6,5-b]pyridine-8-carboxylic acid, 2,3,6,9-tetrahydro-7-methyl-9-(3-nitrophenyl)-2-[methyl(phenylmethyl)amino]ethyl ester 1,1,4,4-tetraoxide], the IC50 was found to be 43 nM. As to `COC(=O)C1=C(C)NC2=C(C1c1ccccc1F)S(=O)(=O)CCS(=O)(=O)C2` (centres unmarked) [Compound 16, 5H-1,4-Dithiepino[6,5-b]pyridine-8-carboxylic acid, 9-(2-fluorophenyl)-2,3,6,9-tetrahydro-7-methyl-methyl ester 1,1,4,4-tetraoxide], the IC50 is 265 nM. Take `CC1=C(C(=O)OCCN(C)Cc2ccccc2)[C@H](c2c(F)cccc2Cl)C2=C(CS(=O)(=O)CCS2(=O)=O)N1` (single isomer, unassigned) [Compound 3, 5H-1,4-Dithiepino[6,5-b]pyridine-8-carboxylic acid, 9-(2-chloro-6-fluorophenyl)-2,3,6,9-tetrahydro-7-methyl-2-[methyl(phenylmethyl)amino]ethyl ester 1,1,4,4-tetraoxide]: the IC50 is 160000 nM.

The assay is the same for the next values; noted with them: 3H-nitrendipine displacement, rabbit heart membranes; Tables 6-7.
As to `CC1=C(C(=O)OCC(N)=O)C(c2c(F)cccc2Cl)C2=C(CS(=O)(=O)CCS2(=O)=O)N1` (centres unmarked) [Compound 93], the concentration for half-maximal inhibition (IC50) came to 6990 nM. `CC1=C(C(=O)OCCCOC(=O)c2ccccc2)C(c2c(F)cccc2Cl)C2=C(CS(=O)(=O)CCS2(=O)=O)N1` (centres unmarked) [Compound 41, 7-methyl-9-[2-fluoro-6-chlorophenyl]-2,3,6,9-tetrahydro-1,1,4,4-tetraoxide 5H-1,4-Dithiepino[6,5-b]pyridine-8-carboxylic acid 3-benzoyloxypropyl ester]: the IC50 was 43 nM. Same read-out and setting: under `CC1=C(C(=O)OCCOC(=O)c2ccncc2)C(c2c(F)cccc2Cl)C2=C(CS(=O)(=O)CCS2(=O)=O)N1` (centres unmarked) [Compound 78] stands 760 nM; under `CC1=C(C(=O)OCCN)C(c2c(F)cccc2Cl)C2=C(CS(=O)(=O)CCS2(=O)=O)N1` (centres unmarked) [Compound 91], 4840 nM; under `CC1=C(C(=O)OCCOC(=O)c2ccc(OC(C)C)cc2)C(c2c(F)cccc2Cl)C2=C(CS(=O)(=O)CCS2(=O)=O)N1` (centres unmarked) [Compound 35, 5H-[1,4]dithiepino[6,5-b]pyridine-8-carboxylic acid, 9-(2-chloro-6-fluorophenyl)-2,3,6,9-tetrahydro-7-methyl-, 2-[[4-(1-methylethoxy)benzoyl]oxy]ethyl ester, 1,1,4,4-tetraoxide], 20 nM. `CC(=O)OCCOC(=O)C1=C(C)NC2=C(C1c1c(F)cccc1Cl)S(=O)(=O)CCS(=O)(=O)C2` (centres unmarked) [Compound 80]: the IC50 worked out at 898 nM.

As for `CC1=C(C(=O)OCCNC(=O)c2ccccc2)C(c2c(F)cccc2Cl)C2=C(CS(=O)(=O)CCS2(=O)=O)N1` (centres unmarked) [Compound 87], the IC50 amounted to 2260 nM.

With `CC1=C(C(=O)OCCOC(=O)C2CCCCCC2)C(c2c(F)cccc2Cl)C2=C(CS(=O)(=O)CCS2(=O)=O)N1` (centres unmarked) [Compound 39, 5H-[1,4]dithiepino[6,5-b]pyridine-8-carboxylic acid, 9-(2-chloro-6-fluorophenyl)-2,3,6,9-tetrahydro-7-methyl-, 2-[(cycloheptylcarbonyl)oxy]ethyl ester, 1,1,4,4-tetraoxide], the IC50 turned out to be 38 nM.

In the case of `CC1=C(C(=O)OCC(=O)OCCN(C)Cc2ccccc2)C(c2c(F)cccc2Cl)C2=C(CS(=O)(=O)CCS2(=O)=O)N1` (centres unmarked) [Compound 74, 7-methyl-9-[2-fluoro-6-chlorophenyl]-2,3,6,9-tetrahydro-1,1,4,4-tetraoxide 5H-1,4-Dithiepino[6,5-b]pyridine-8-carboxylic acid carboxy-2-(1-N-methylbenzylamine)ethyl ester], the IC50 was found to be 420 nM. On the same count and under the same terms, under `CC(=O)OCCCOC(=O)C1=C(C)NC2=C(C1c1c(F)cccc1Cl)S(=O)(=O)CCS(=O)(=O)C2` (centres unmarked) [Compound 68] stands 340 nM; under `CCN(CC)C(=O)COC(=O)C1=C(C)NC2=C(C1c1c(F)cccc1Cl)S(=O)(=O)CCS(=O)(=O)C2` (centres unmarked) [Compound 90], 4240 nM. Turning to `CC1=C(C(=O)OCCOC(=O)c2ccccc2)C(c2c(F)cccc2Cl)C2=C(CS(=O)(=O)CCS2(=O)=O)N1` (centres unmarked) [Compound 51], the IC50 came out at 62 nM.

On to `CC1=C(C(=O)OCC(=O)OC(C)(C)C)C(c2c(F)cccc2Cl)C2=C(CS(=O)(=O)CCS2(=O)=O)N1` (centres unmarked) [Compound 69, 7-methyl-9-[2-fluoro-6-chlorophenyl]-2,3,6,9-tetrahydro-1,1,4,4-tetraoxide 5H-1,4-Dithiepino[6,5-b]pyridine-8-carboxylic acid 2-(1,1-dimethylethyloxy)-2-oxoethyl ester], for which the IC50 was 356 nM.

Turning to `CC1=C(C(=O)OCCOC(=O)CCC(C)C)C(c2c(F)cccc2Cl)C2=C(CS(=O)(=O)CCS2(=O)=O)N1` (centres unmarked) [Compound 36], the IC50 stood at 20 nM. On to `CC1=C(C(=O)OCCOC(=O)C(C)Cc2ccccc2)C(c2c(F)cccc2Cl)C2=C(CS(=O)(=O)CCS2(=O)=O)N1` (centres unmarked) [Compound 37], for which the IC50 turned out to be 33 nM. Turning to `CC1=C(C(=O)OCCOC(=O)CN(C)C(=O)c2ccccc2)C(c2c(F)cccc2Cl)C2=C(CS(=O)(=O)CCS2(=O)=O)N1` (centres unmarked) [Compound 58], the IC50 turned out to be 153 nM. For `CC1=C(C(=O)OCCCCOC(=O)c2ccccc2)C(c2c(F)cccc2Cl)C2=C(CS(=O)(=O)CCS2(=O)=O)N1` (centres unmarked) [Compound 49], the IC50 was found to be 57 nM. For the compound `CC1=C(C(=O)OCCOC(=O)c2ccc(C#N)cc2)C(c2c(F)cccc2Cl)C2=C(CS(=O)(=O)CCS2(=O)=O)N1` (centres unmarked) [Compound 48], the IC50 was 55 nM. Still for that read-out and setting: under `CC1=C(C(=O)OCCC2CCOC2=O)C(c2cccc(Cl)c2Cl)C2=C(CS(=O)(=O)CCS2(=O)=O)N1` (centres unmarked) [Compound 63] stands 194 nM; under `CC1=C(C(=O)OCCNC(=O)OC(C)(C)C)C(c2c(F)cccc2Cl)C2=C(CS(=O)(=O)CCS2(=O)=O)N1` (centres unmarked) [Compound 79, 5H-[1,4]dithiepino[6,5-b]pyridine-8-carboxylic acid, 9-(2-chloro-6-fluorophenyl)-2,3,6,9-tetrahydro-7-methyl-, 2-[[(1,1-dimethylethoxy)carbonyl]amino]ethyl ester, 1,1,4,4-tetraoxide], 768 nM; under `CC1=C(C(=O)OCC(=O)OCc2ccccc2)C(c2c(F)cccc2Cl)C2=C(CS(=O)(=O)CCS2(=O)=O)N1` (centres unmarked) [Compound 66], 279 nM. On to `CC(=O)OCCCOC(=O)C1=C(C)NC2=C(C1c1c(F)cccc1Cl)S(=O)(=O)CCS(=O)(=O)C2` (centres unmarked) [Compound 86], for which the IC50 came to 2120 nM.
